Data: patent publication US6737383B1, “Herbicidal oxadiazolidines” (priority 1999, dated 2004)

Tests used:
[1] = tested on: rape; assay: Test B pre/postemergence rape; assay type: in vivo, Brassica napus
Procedure, shortened: (§1)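 Response is a visual 0-to-10 score relative to untreated plants, where 0 means no effect and 10 means complete control, taken twelve to sixteen days after application. Treatments went onto soil at planting and onto foliage of 1- to 4-leaf plants, using a surfactant-containing non-phytotoxic solvent.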

[2] = tested on: surinam grass; assay: Test B pre/postemergence surinam grass; assay type: in vivo, Brachiaria decumbens
Procedure, shortened: as §1

[3] = tested on: velvetleaf; assay: Test B pre/postemergence velvetleaf; assay type: in vivo, Abutilon theophrasti
Procedure, shortened: as §1

[4] = tested on: wheat; assay: Test B pre/postemergence wheat; assay type: in vivo, Triticum aestivum
Procedure, shortened: as §1

[5] = tested on: blackgrass; assay: Test B pre/postemergence blackgrass; assay type: in vivo, Alopecurus myosuroides
Procedure, shortened: as §1

[6] = tested on: cocklebur; assay: Test B pre/postemergence cocklebur; assay type: in vivo, Xanthium strumarium
Procedure, shortened: as §1

[7] = tested on: smallflower flatsedge; assay: Test B flood test smallflower flatsedge; assay type: in vivo, Cyperus difformis
Procedure, shortened: (§2)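 Read-out is a visual response score from 0 (no effect) to 10 (complete control), assigned by comparison with untreated controls. Treatment was applied at the 2-leaf stage, and plants stayed in the greenhouse for twelve to sixteen days before scoring.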

[8] = tested on: morningglory; assay: Test B pre/postemergence morningglory; assay type: in vivo, Ipomoea hederacea
Procedure, shortened: as §1

[9] = tested on: rice; assay: Test B flood test rice; assay type: in vivo, Oryza sativa
Procedure, shortened: as §2

[10] = tested on: wild oat; assay: Test B pre/postemergence wild oat; assay type: in vivo, Avena fatua
Procedure, shortened: as §1

[11] = tested on: bedstraw; assay: Test B pre/postemergence bedstraw; assay type: in vivo, Galium aparine
Procedure, shortened: as §1

[12] = tested on: soybean; assay: Test B pre/postemergence soybean; assay type: in vivo, Glycine max
Procedure, shortened: as §1

[13] = tested on: sugar beet; assay: Test B pre/postemergence sugar beet; assay type: in vivo, Beta vulgaris
Procedure, shortened: as §1

[14] = tested on: pigweed; assay: Test B pre/postemergence pigweed; assay type: in vivo, Amaranthus retroflexus
Procedure, shortened: as §1

[15] = tested on: corn; assay: Test B pre/postemergence corn; assay type: in vivo, Zea mays
Procedure, shortened: as §1

[16] = tested on: giant foxtail; assay: Test B pre/postemergence giant foxtail; assay type: in vivo, Setaria faberii
Procedure, shortened: as §1

[17] = Postemergence, Rate 125 g/ha, scale of 0 to 10 where 0 is no effect and 10 is complete control
[18] = Preemergence, Rate 62 g/ha, scale 0 to 10 (0 no effect, 10 complete control)
[19] = Preemergence, Rate 125 g/ha, 0 is no effect, 10 is complete control
[20] = Preemergence, Rate 250 g/ha, scale 0 to 10, 0 is no effect, 10 is complete control
[21] = Preemergence, Rate 500 g/ha, scale 0 to 10 (0 no effect, 10 complete control)
[22] = Rate 62 g/ha, Postemergence, scale of 0 to 10 where 0 is no effect and 10 is complete control
[23] = Rate 250 g/ha, Postemergence, scale 0 to 10, 0 is no effect, 10 is complete control
[24] = Rate 500 g/ha, Postemergence, scale 0 to 10
[25] = Postemergence (flood test species), Rate 125 g/ha, scale of 0 to 10 where 0 is no effect and 10 is complete control
[26] = Rate 62 g/ha, Postemergence section, flood test species, scale of 0 to 10 where 0 is no effect and 10 is complete control
[27] = Rate 250 g/ha, Postemergence (flood test), scale 0 to 10, 0 is no effect, 10 is complete control
[28] = Rate 500 g/ha, listed under Postemergence (flood test species), scale 0 to 10

Cc1ccccc1Cn1c(=O)on(C(=O)N(c2ccc(Cl)cc2)C(C)C)c1=O [Compound 136] was tested, and the “Rape plant response rating” value [1, 17] was 0, the “Rape plant response rating” value [1, 18] was 0 and the “Rape plant response rating (0 to 10 scale)” value [1, 19] was 0. For the same molecule, the “Rape plant response rating” value [1, 20] was 0, the “Rape plant response rating” value [1, 21] was 0 and the “Rape plant response rating” value [1, 22] was 0. The “Plant response rating, Rape” value [1, 23] was 2, the “Rape plant response rating” value [1, 24] was 4 and the “B. signalgrass plant response rating” value [2, 17] was 0. The “B. signalgrass plant response rating” value [2, 18] was 3, the “B. signalgrass plant response rating (0 to 10 scale)” value [2, 19] was 3 and the “B. signalgrass plant response rating” value [2, 20] was 5. The “B. signalgrass plant response rating” value [2, 21] was 5, the “B. signalgrass plant response rating” value [2, 22] was 0 and the “Plant response rating, B. signalgrass” value [2, 23] was 1. The “B. signalgrass plant response rating” value ([2]; Rate 500 g/ha, Postemergence, scale of 0 to 10 where 0 is no effect and 10 is complete control) was 3, the “Velvetleaf plant response rating” value [3, 17] was 0 and the “Velvetleaf plant response rating” value [3, 18] was 0. For the same molecule, the “Velvetleaf plant response rating (0 to 10 scale)” value [3, 19] was 0, the “Velvetleaf plant response rating” value [3, 20] was 0 and the “Velvetleaf plant response rating” value [3, 21] was 4. The “Velvetleaf plant response rating” value [3, 22] was 0, the “Plant response rating, Velvetleaf” value [3, 23] was 0 and the “Velvetleaf plant response rating” value [3, 24] was 2. For the same molecule, the “Wheat plant response rating” value [4, 17] was 0, the “Wheat plant response rating” value [4, 18] was 0 and the “Wheat plant response rating (0 to 10 scale)” value [4, 19] was 0. The “Wheat plant response rating” value [4, 20] was 0, the “Wheat plant response rating” value [4, 21] was 0 and the “Wheat plant response rating” value [4, 22] was 0. The “Plant response rating, Wheat” value [4, 23] was 0, the “Wheat plant response rating” value [4, 24] was 0 and the “Blackgrass plant response rating” value [5, 17] was 0. For the same molecule, the “Blackgrass plant response rating” value [5, 18] was 0, the “Blackgrass plant response rating (0 to 10 scale)” value [5, 19] was 4 and the “Blackgrass plant response rating” value [5, 20] was 4. For the same molecule, the “Blackgrass plant response rating” value [5, 21] was 6, the “Blackgrass plant response rating” value [5, 22] was 0 and the “Plant response rating, Blackgrass” value [5, 23] was 3. The “Blackgrass plant response rating” value [5, 24] was 5, the “Cocklebur plant response rating” value [6, 17] was 2 and the “Cocklebur plant response rating” value [6, 18] was 0. The “Cocklebur plant response rating (0 to 10 scale)” value [6, 19] was 0, the “Cocklebur plant response rating” value [6, 20] was 0 and the “Cocklebur plant response rating” value [6, 22] was 1. For the same molecule, the “Plant response rating, Cocklebur” value [6, 23] was 2, the “Cocklebur plant response rating” value [6, 24] was 4 and the “S. Flatsedge plant response rating” value [7, 25] was 0. For the same molecule, the “S. Flatsedge plant response rating” value [7, 26] was 0, the “Plant response rating, S. Flatsedge” value [7, 27] was 0 and the “S. Flatsedge plant response rating” value [7, 28] was 0. The “Morningglory plant response rating” value [8, 17] was 10, the “Morningglory plant response rating” value [8, 18] was 0 and the “Morningglory plant response rating (0 to 10 scale)” value [8, 19] was 0. For the same molecule, the “Morningglory plant response rating” value [8, 20] was 0, the “Morningglory plant response rating” value [8, 21] was 0 and the “Morningglory plant response rating” value [8, 22] was 6. The “Plant response rating, Morningglory” value [8, 23] was 10, the “Morningglory plant response rating” value [8, 24] was 10 and the “Rice plant response rating” value [9, 25] was 0. For the same molecule, the “Rice plant response rating” value [9, 26] was 0, the “Plant response rating, Rice” value [9, 27] was 0 and the “Rice plant response rating” value [9, 28] was 0. For the same molecule, the “Wild oats plant response rating” value [10, 17] was 0, the “Wild oats plant response rating” value [10, 18] was 0 and the “Wild oats plant response rating (0 to 10 scale)” value [10, 19] was 0. The “Wild oats plant response rating” value [10, 20] was 0, the “Wild oats plant response rating” value [10, 21] was 3 and the “Wild oats plant response rating” value [10, 22] was 0. For the same molecule, the “Plant response rating, Wild oats” value [10, 23] was 0, the “Wild oats plant response rating” value [10, 24] was 3 and the “Bedstraw plant response rating” value [11, 17] was 5. For the same molecule, the “Bedstraw plant response rating (0 to 10 scale)” value [11, 19] was 0, the “Bedstraw plant response rating” value [11, 20] was 0 and the “Bedstraw plant response rating” value [11, 21] was 0. For the same molecule, the “Bedstraw plant response rating” value [11, 22] was 2, the “Plant response rating, Bedstraw” value [11, 23] was 8 and the “Soybean plant response rating” value [12, 17] was 4. The “Soybean plant response rating” value [12, 18] was 0, the “Soybean plant response rating (0 to 10 scale)” value [12, 19] was 0 and the “Soybean plant response rating” value [12, 20] was 0. For the same molecule, the “Soybean plant response rating” value [12, 21] was 0, the “Soybean plant response rating” value [12, 22] was 3 and the “Plant response rating, Soybean” value [12, 23] was 4. The “Soybean plant response rating” value [12, 24] was 5, the “Sugarbeets plant response rating” value [13, 17] was 4 and the “Sugarbeets plant response rating” value [13, 18] was 4. The “Sugarbeets plant response rating (0 to 10 scale)” value [13, 19] was 4, the “Sugarbeets plant response rating” value [13, 20] was 8 and the “Sugarbeets plant response rating” value [13, 21] was 9. The “Sugarbeets plant response rating” value [13, 22] was 3, the “Plant response rating, Sugarbeets” value [13, 23] was 7 and the “Sugarbeets plant response rating” value [13, 24] was 8. The “Redroot pigweed plant response rating” value [14, 17] was 4, the “Redroot pigweed plant response rating” value [14, 18] was 7 and the “Redroot pigweed plant response rating (0 to 10 scale)” value [14, 19] was 8. The “Redroot pigweed plant response rating” value [14, 20] was 10, the “Redroot pigweed plant response rating” value [14, 21] was 10 and the “Redroot pigweed plant response rating” value [14, 22] was 3. The “Plant response rating, Redroot pigweed” value [14, 23] was 6, the “Redroot pigweed plant response rating” value [14, 24] was 6 and the “Corn plant response rating” value [15, 17] was 0. The “Corn plant response rating” value [15, 18] was 0, the “Corn plant response rating (0 to 10 scale)” value [15, 19] was 0 and the “Corn plant response rating” value [15, 20] was 0. For the same molecule, the “Corn plant response rating” value [15, 21] was 0, the “Corn plant response rating” value [15, 22] was 0 and the “Plant response rating, Corn” value [15, 23] was 0. The “Corn plant response rating” value [15, 24] was 0, the “Giant foxtail plant response rating” value [16, 17] was 4 and the “Giant foxtail plant response rating” value [16, 18] was 0. For the same molecule, the “Giant foxtail plant response rating (0 to 10 scale)” value [16, 19] was 4, the “Giant foxtail plant response rating” value [16, 20] was 10 and the “Giant foxtail plant response rating” value [16, 21] was 10. For the same molecule, the “Giant foxtail plant response rating” value [16, 22] was 0, the “Plant response rating, Giant foxtail” value [16, 23] was 7 and the “Giant foxtail plant response rating” value [16, 24] was 7.
